# ChEMBL document CHEMBL3507680, “University of Dundee, Gates Library screen for HepG2 cell viability”
# Test: Human HepG2 cell viability assay in 384 well format
# Assay type: toxicity, cell-based
# Set-up: dose 125 nL, time 70.5 hour; cytotoxicity at 70.5 h: concentration not given beside the values
# Settings: HepG2 cells, read-out: Inhibition
row,Compound,cytotoxicity at 70.5 h [%]
1,Cc1noc(C)c1CC(=O)NCC(CC(C)C)N1CCOCC1 (stereo not given),-4.86
2,CN(C)C(=O)Cc1nc(CN2CCOC(Cn3cccn3)C2)cs1 (stereo not given),1.45
3,CC(C)CCNC(=O)c1ccc2c(=O)n(-c3ccccc3)cnc2c1,-25.3
4,CN(Cc1ccco1)[C@@H]1CN(Cc2ccccn2)C[C@@H]2CCCO[C@@H]21,-9.21
5,CC(C)(C)c1cn2nc(N3CCOC(Cn4cncn4)C3)sc2n1 (stereo not given),-15.9
6,c1ccc(CCCn2ccnc2-c2cn(C3CCNCC3)nn2)nc1,22.4
7,Cc1cc(N2CCCN(CCc3ccccc3)CC2)ccn1,-5.44
8,CC(C)c1ocnc1C(=O)N1CCCC(c2ccn[nH]2)C1 (stereo not given),-3.87
9,CCc1noc(C)c1C(=O)N1CCCC1Cn1nc(C)cc1C (stereo not given),-3.58
10,CC(C)Cn1cc(C(=O)NC2CCS(=O)(=O)C2)c2ccccc2c1=O (stereo not given),-13.3
11,Cn1nc(C(=O)NCCc2ccc(OC3CCCC3)cc2)ccc1=O,12.1
12,Cc1c(F)cc(C(=O)O)cc1S(=O)(=O)Nc1ccccc1,3.77
13,Cc1cc(C)cc(OCCN(C)Cc2cscn2)c1,0.706
14,CCc1c(C(=O)N2CCC3(CCCN(CCO)C3=O)C2)csc1C (stereo not given),6.16
15,COc1ccc(CCNC(=O)NC2CC(=O)N(c3ccccc3)C2)cc1 (stereo not given),49
16,Cc1cnn(CC2CCCN2C(=O)c2n[nH]c(=O)c3ccccc23)c1 (stereo not given),-7.98
17,CCOCc1cnc2n1CCN(C(=O)c1ccoc1C)C2C (stereo not given),9.87
18,CC(NC(=O)NC1CCN(Cc2ccccn2)CC1)c1ccco1 (stereo not given),-1.3
19,Cc1csc(CN(CC2CCCO2)C(=O)c2cccnc2C)n1 (stereo not given),-6.56
20,CC1(C)CC(CC(=O)N2CC(C)(C)[C@@](C)(O)C2)CC(C)(C)N1,13
21,COc1cc(N2CC[C@@H]3O[C@@H](C(=O)NCCN(C)C)C[C@@H]32)ncn1,-9.68
22,CN(C)c1ncc2c(n1)CCCC2NC(=O)C1CC1 (stereo not given),-11.8
23,COc1cccc(COCC(=O)NC(C(N)=O)c2ccccc2)c1 (stereo not given),3.41

row,Compound,cytotoxicity at 70.5 h [%]
1,Cc1ccc(N2Cc3cnn(Cc4ccc(F)cc4)c3C2)nn1,-4.14
2,N#Cc1ccnc(N2CCN(CC(O)c3ccc(F)cc3)CC2)c1 (stereo not given),-0.587
3,CCN(CC)c1ncccc1CNCc1ccc(-c2ccn[nH]2)s1,-6.37
4,CCN1CC(C(=O)N2CCN(c3cnn(C)c(=O)c3)CC2)CCC1=O (stereo not given),-9.64
5,Cn1cc(CN2CCCC3(COCCN(c4cccnc4)C3)C2)cn1 (stereo not given),-6.27
6,O=C1Nc2ccccc2/C1=C1\CCCN1,-1.25
7,CNc1nc(C(=O)N2CCN(c3ccc(Cl)c(Cl)c3)CC2)cs1,-6.48
8,COC(=O)[C@H](C)NC(=O)c1nc(C2CC2)n(-c2ccccc2Cl)n1,-11.3
9,CCNc1ncc(C(=O)N[C@H](C(N)=O)c2ccccc2)cn1,24
10,CC(C)N1CCN(C(=O)c2ccc(Cn3ccccc3=O)o2)CC1,-5.81
11,O=C1[C@@H]2CCN(Cc3ccoc3)C[C@@H]2OCCN1Cc1cccc(F)c1,-4.35
12,CS(=O)(=O)N1Cc2nc(C(=O)NCc3ccccc3)oc2C1,-5.1
13,O=C(c1ccsc1)N1CCO[C@@H]2CN(Cc3ccccn3)CC[C@@H]2C1,8.56
14,Cn1cc2c(n1)C(CNCc1ccco1)OCC2 (stereo not given),19.8
15,Cc1cccnc1CC(C)N(C)C(=O)c1ccoc1C (stereo not given),5.46
16,COc1ccc(CNC(=O)c2nn(C)c3c2CS(=O)(=O)CC3)cc1,-7.69
17,C[C@@H]1CN(C(=O)c2cccn2C)C[C@]12CCN(c1ccsc1)C2=O,-13.8
18,O=C1CC2(CCN(CC3CC3)C2)CN1c1cccnc1 (stereo not given),-9.06
19,Cc1nc(CNC(=O)C(C)Oc2ccccc2F)no1 (stereo not given),-5.02
20,CCc1nc(CSc2nnc(N)n2C2CC2)no1,-7.26
21,CCCC(C)NCc1cnc(-c2cccc(C)c2)nc1 (stereo not given),1.72
22,Cn1cc(C[C@H]2[C@H](O)CCN2Cc2ccc3c(c2)OCO3)cn1,6.92
